Results taken from patent US12371428B2 (Exelixis, Inc., priority 2019, dated 2025).

Legend:
[1] = target: AXL (phospho-AXL, Gas6-stimulated A-172 glioblastoma cells) (Homo sapiens (Human), UniProt P30530); assay: AXL autophosphorylation ELISA in A-172 cells (Example E); format: cell-based; settings: cellular activity; AXL autophosphorylation ELISA in A-172 cells; read-out: Axl IC50
Summary of the method: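 Phospho-AXL was measured by ELISA in lysates of Gas6-stimulated A-172 cells, starved 24 h in serum-free medium and exposed 1 h to an 8-point compound dilution at 0.3% DMSO.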

[2] = target: Mer (phospho-Mer, MERTK-transfected 293A cells) (Homo sapiens (Human), UniProt Q12866); assay: Mer autophosphorylation ELISA in transient transfected 293A cells (Example H); format: cell-based; settings: cellular activity; Mer autophosphorylation ELISA in transient transfected 293A cells
Summary of the method: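 MERTK-transfected 293A; 8-pt dose, 1 h, serum-free, 0.3% DMSO. Cold lysis with orthovanadate and protease/phosphatase inhibitors. Phospho-Mer by DuoSet IC ELISA vs phospho-Mer standard. IC50: 4-PL fit; DMSO = 100%, reference inhibitor = 0%.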

Chain of Mer (phospho-Mer, MERTK-transfected 293A cells) (Q12866 21-999): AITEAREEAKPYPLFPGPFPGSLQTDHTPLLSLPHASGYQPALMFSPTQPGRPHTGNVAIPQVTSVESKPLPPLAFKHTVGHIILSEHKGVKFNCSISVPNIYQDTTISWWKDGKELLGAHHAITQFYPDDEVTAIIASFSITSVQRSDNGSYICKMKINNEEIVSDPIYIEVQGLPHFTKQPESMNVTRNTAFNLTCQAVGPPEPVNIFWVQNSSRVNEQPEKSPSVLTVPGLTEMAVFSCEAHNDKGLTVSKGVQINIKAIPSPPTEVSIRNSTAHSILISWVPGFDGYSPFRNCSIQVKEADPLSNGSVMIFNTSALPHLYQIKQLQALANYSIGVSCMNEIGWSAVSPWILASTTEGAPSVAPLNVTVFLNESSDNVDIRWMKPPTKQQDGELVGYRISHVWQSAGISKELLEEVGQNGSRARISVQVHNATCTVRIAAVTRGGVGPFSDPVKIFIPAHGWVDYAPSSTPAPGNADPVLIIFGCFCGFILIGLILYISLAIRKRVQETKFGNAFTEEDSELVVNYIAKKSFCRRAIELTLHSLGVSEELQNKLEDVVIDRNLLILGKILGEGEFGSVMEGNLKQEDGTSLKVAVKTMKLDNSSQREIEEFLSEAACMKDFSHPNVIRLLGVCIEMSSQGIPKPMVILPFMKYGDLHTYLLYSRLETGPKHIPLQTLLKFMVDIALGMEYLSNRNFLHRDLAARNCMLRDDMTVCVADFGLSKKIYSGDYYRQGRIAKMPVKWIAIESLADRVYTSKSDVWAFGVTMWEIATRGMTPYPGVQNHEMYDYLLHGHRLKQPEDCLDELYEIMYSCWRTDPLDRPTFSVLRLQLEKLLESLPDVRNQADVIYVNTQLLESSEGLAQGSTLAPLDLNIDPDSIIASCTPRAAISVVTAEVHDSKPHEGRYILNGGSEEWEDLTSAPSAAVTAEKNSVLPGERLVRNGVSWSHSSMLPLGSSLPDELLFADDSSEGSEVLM
Chain of AXL (phospho-AXL, Gas6-stimulated A-172 glioblastoma cells) (P30530 26-894): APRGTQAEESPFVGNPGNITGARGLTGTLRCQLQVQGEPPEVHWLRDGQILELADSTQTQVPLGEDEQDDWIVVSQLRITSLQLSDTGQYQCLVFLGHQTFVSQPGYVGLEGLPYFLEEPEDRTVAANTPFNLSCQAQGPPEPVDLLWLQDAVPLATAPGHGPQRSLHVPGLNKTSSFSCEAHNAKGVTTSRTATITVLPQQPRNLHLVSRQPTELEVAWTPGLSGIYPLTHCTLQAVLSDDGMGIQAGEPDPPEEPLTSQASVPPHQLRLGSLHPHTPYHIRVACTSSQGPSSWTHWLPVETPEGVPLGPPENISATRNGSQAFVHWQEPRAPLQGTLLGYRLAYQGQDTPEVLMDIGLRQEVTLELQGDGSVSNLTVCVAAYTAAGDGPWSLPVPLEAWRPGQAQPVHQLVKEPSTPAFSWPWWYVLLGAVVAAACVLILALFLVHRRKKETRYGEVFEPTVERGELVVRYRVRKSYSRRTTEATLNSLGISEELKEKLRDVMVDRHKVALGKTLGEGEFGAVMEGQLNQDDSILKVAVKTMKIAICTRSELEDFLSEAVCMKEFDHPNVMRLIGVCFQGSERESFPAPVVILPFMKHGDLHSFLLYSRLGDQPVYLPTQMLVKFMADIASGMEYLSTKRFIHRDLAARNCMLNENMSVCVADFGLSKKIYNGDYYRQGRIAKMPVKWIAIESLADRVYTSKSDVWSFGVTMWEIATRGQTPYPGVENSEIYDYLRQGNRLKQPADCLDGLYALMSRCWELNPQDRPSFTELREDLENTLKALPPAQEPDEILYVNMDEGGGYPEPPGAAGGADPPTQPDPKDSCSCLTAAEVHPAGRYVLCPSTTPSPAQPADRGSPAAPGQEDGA

| IC50 [1] | IC50 [2] | Compound |
| --- | --- | --- |
| < 100 nM | < 100 nM | Cc1ncc(C(=O)Nc2ccc(Oc3ccnc4cnccc34)c(F)c2)c(O)c1-c1ccc(F)cc1 [Compound 642, N-[3-fluoro-4-(1,7-naphthyridin-4-yloxy)phenyl]-5-(4-fluorophenyl)-4-hydroxy-6-methylpyridine-3-carboxamide] |
|  | > 300 nM | CNC(=O)c1cnc2c(Oc3ccc(NC(=O)c4cnc(C)c(-c5ccc(F)cc5)c4O)cc3F)ccnc2c1 [Compound 578, 8-[2-Fluoro-4-[[5-(4-fluorophenyl)-4-hydroxy-6-methylpyridine-3-carbonyl]amino]phenoxy]-N-methyl-1,5-naphthyridine-3-carboxamide] |
|  | < 100 nM | COc1cnc2c(Oc3ccc(NC(=O)c4cn(C(C)C)cc(-c5ccc(F)cc5)c4=O)cc3F)ccnc2c1 [Compound 123, N-[3-Fluoro-4-[(7-methoxy-1,5-naphthyridin-4-yl)oxy]phenyl]-5-(4-fluorophenyl)-4-oxo-1-propan-2-ylpyridine-3-carboxamide] |
